The values below come from publication PMC10157890, “Lysine Deacetylase Substrate Selectivity: Distinct Interaction Surfaces Drive Positive and Negative Selection for Residues Following Acetyllysine” (Biochemistry, 2023).

The target in assay [1] is T1, full-length human KDAC6 (Homo sapiens, UniProt Q9UBN7).
T1 construct: A pFastbac1 construct containing full-length human KDAC6 (UniProtKB Q9UBN7) with a C-terminal His6 tag; His6 (C); made in house; host or cells: ExpiSf9 insect cells (baculovirus)
T1 sequence (Q9UBN7 1-1215): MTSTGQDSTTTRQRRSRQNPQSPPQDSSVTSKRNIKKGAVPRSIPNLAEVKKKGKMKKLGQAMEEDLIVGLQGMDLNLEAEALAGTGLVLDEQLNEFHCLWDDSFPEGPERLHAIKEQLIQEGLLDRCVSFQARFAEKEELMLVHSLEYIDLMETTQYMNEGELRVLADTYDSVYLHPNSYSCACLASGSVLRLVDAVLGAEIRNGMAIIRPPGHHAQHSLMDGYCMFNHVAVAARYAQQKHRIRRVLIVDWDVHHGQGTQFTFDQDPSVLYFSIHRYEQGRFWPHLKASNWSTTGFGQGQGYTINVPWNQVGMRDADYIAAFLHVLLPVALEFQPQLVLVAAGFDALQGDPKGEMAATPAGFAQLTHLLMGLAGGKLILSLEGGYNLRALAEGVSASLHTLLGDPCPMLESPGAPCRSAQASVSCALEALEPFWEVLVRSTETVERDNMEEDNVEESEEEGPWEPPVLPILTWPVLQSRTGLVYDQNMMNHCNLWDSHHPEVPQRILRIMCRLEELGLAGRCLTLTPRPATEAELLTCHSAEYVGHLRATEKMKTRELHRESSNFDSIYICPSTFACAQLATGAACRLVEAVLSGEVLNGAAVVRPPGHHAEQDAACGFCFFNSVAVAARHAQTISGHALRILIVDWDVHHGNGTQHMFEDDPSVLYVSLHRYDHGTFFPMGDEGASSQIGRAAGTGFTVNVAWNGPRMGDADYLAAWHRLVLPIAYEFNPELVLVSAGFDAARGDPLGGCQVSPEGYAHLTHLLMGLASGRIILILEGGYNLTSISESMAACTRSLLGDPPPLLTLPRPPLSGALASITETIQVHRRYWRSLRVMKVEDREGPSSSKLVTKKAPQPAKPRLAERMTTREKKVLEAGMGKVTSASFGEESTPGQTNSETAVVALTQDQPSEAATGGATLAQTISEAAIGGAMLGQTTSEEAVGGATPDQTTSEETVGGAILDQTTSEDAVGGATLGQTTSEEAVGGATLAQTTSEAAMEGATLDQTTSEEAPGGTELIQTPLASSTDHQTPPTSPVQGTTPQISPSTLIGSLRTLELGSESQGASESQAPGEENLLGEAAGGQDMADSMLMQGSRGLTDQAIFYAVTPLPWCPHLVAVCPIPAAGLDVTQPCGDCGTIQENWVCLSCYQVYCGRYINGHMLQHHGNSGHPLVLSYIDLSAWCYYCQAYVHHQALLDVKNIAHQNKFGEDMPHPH
The assay can be described thus: Activity of KDAC6 with putative substrate peptides (verification of substrate preferences). Format: biochemical. As to conditions: endpoint, 100 μM peptide, buffer also containing 100 mM KCl; for specific activity, KDAC6 with putative substrates (no activity above limit): limit of reliable detection 0.0013 s^–1; for specific activity, KDAC6 with putative substrates: 50–200 nM KDAC, 25 °C, pH 7.6, 15–60 min, average ± SD, SD. On the procedure: (§1) Peptide substrates were synthesized to >95% purity (GenScript) with N-terminal acetylation and C-terminal amidation. For endpoint experiments, 100 μM peptide substrates were reacted with 50–200 nM KDAC at 25 °C at pH 7.6 for 15–60 min. Deacetylation was measured using a fluorescamine-based assay that was previously described in detail.[18] Reported raw activity for each enzyme–substrate pair is the average and standard deviation for n ≥ 4 unless otherwise noted. Normalized activity was calculated by defining the activity of each KDAC with the FRK^acWR peptide equal to 1. Statistical significance was determined by calculating p values using two-tailed t-tests, assuming similar variance. The significance threshold was set at p ≤ 0.01 with the Bonferroni correction for multiple testing. Kinetic parameters were determined for a subset of enzyme–substrate pairs. In these experiments, 50–200 nM KDAC was reacted with ≥5 substrate concentrations from 10 to 2500 nM and ≥3 timepoints at intervals of 3–20 min were collected for each substrate concentration. Deacetylation was measured using the same method as the endpoint experiments, and KM and kcat were calculated from the observed activity of each reaction as previously described.[18] Activity assays with peptides for verification of substrate preferences were performed as for endpoint experiments, except in a buffer also containing 100 mM KCl. Statistical analysis of the correlation of the presence of particular substrate residues with activity was performed using Fisher’s exact test with a significance threshold of p ≤ 0.05.
In contrast with the peptides tested thus far, which were all derivatives of a single substrate, these panels consisted of peptides derived from human proteins in which the lysine residue is known to be acetylated in cells.[3],[5],[42],[50]−[72] For each enzyme, peptides were included either because they contained an acetyllysine that has been identified as a putative substrate of the KDAC from published cellular studies and/or because the peptide contained a residue that appeared to drive KDAC activity in our analysis. For KDAC6, we observed that of the set of peptides that were tested, six contained tryptophan or tyrosine directly after the acetyllysine. Remarkably, all of these peptides appeared in the top seven most reactive substrates tested (Table 2). Assuming that phenylalanine would behave similarly to tryptophan and tyrosine, we determined that there was a statistically significant correlation between whether or not a peptide was deacetylated by KDAC6 and the presence of tyrosine, tryptophan, or phenylalanine in the +1 position (p = 0.011). […] Thus, our conclusion that the presence of these aromatic residues in the +1 position relative to the acetyllysine is a major factor promoting KDAC6 activity has predictive utility and provides some understanding of the underlying mechanistic basis.

Assay [2] has as its target T2, Full-length human KDAC8 (Homo sapiens, UniProt Q9BY41).
T2 construct: Full-length human KDAC8 (UniProtKB Q9BY41) was recombinantly expressed fused to a C-terminal His6 tag; TEV protease cleavage site (C); His6 (C); made in house; host or cells: Escherichia coli
T2 sequence (Q9BY41 1-377): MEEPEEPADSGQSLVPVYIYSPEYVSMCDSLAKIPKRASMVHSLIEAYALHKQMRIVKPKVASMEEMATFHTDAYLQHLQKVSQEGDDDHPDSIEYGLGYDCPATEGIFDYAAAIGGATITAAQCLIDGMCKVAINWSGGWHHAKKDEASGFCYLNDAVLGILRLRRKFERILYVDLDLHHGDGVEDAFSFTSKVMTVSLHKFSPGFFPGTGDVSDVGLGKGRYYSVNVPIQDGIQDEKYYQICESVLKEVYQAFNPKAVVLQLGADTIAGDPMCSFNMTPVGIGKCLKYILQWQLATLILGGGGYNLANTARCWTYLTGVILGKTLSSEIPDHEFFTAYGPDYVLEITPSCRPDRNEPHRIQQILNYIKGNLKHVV
The assay can be described thus: Activity of KDAC8 with putative substrate peptides (verification of substrate preferences). As to conditions: endpoint, 100 μM peptide, buffer also containing 100 mM KCl; for specific activity, KDAC8 with putative substrates (no activity above limit): limit of reliable detection 0.0004 s^–1; for specific activity, KDAC8 with putative substrates: 50–200 nM KDAC, 25 °C, pH 7.6, 15–60 min, average ± SD, SD. The assay is classed as biochemical. On the procedure:
as §1
We performed a similar experiment for KDAC8, this time using substrates that have been described as potential KDAC8 substrates from cell-based studies or which contained residues in the +1 and/or +2 positions that were identified to enhance activity of KDAC8. […] In addition, we also considered phenylalanine, as we did for KDAC6. Here, we looked at the correlation between peptides having any of these features and activity. While the result was less striking than for KDAC6, there was still a positive correlation between the presence of the identified residues and activity (Table 3; p = 0.048). Although we have identified only a portion of the interactions that likely contribute to substrate selectivity for these enzymes, these interactions correlate with a statistically significant increase in activity with peptides from potential biological substrates in an unbiased background of residues in other positions.

Turning to “DLAK^acVQR [acetyllysine peptide from tubulin α-1A chain (P68369)]”, in assay [1], the “specific activity, KDAC6 with putative substrates (no activity above limit)” value is listed as “– (– indicates no activity above the limit of reliable detection (0.0013 s^–1))”. As for EIGK^acTLA, in assay [2], the “specific activity, KDAC8 with putative substrates (no activity above limit)” value was “– (– indicates no activity above the limit of reliable detection (0.0004 s^–1))”.

Take “EVGK^acLLN [acetyllysine peptide from centromere protein F (P49454)]”: in assay [2], the “specific activity, KDAC8 with putative substrates (no activity above limit)” value is reported as “– (– indicates no activity above the limit of reliable detection (0.0004 s^–1))”. Regarding “FFHK^acVNE [acetyllysine peptide from Mitofusin-1 (Q8IWA4)]”, the “specific activity, KDAC6 with putative substrates (no activity above limit)” value in assay [1] was “– (– indicates no activity above the limit of reliable detection (0.0013 s^–1))”. For “GAGK^acHVP [acetyllysine peptide from tubulin α-1A chain (P68369)]”, in assay [1], the “specific activity, KDAC6 with putative substrates” value is on record as 0.06 ± 0.03 s^–1. Same read-out and setting: the value for “IIDK^acSQL [acetyllysine peptide from serine/threonine-protein kinase SIK2 (Q9H0K1)]” was 0.011 ± 0.009 s^–1. Still for that read-out and setting: the figure for “LDHK^acFDL [acetyllysine peptide from tubulin α-1A chain (P68369)]” is 0.009 ± 0.007 s^–1. For the substance “LGGK^acQRA [acetyllysine peptide from retinoic acid-induced protein 1 (Q7Z5J4)]”, in assay [2], the “specific activity, KDAC8 with putative substrates” value is 0.0006 ± 0.0004 s^–1. On to “LISK^acIRE [acetyllysine peptide from tubulin β (Q13509)]”, for which the “specific activity, KDAC6 with putative substrates (no activity above limit)” value in assay [1] is “– (– indicates no activity above the limit of reliable detection (0.0013 s^–1))”. On to “LSGK^acGNP [acetyllysine peptide from catenin β-1 (P35222)]”, for which the “specific activity, KDAC6 with putative substrates” value in assay [1] was 0.042 ± 0.009 s^–1.

For the substance “PDRK^acPFP [acetyllysine peptide from E3 SUMO-protein ligase EGR2 (P11161)]”, the “specific activity, KDAC6 with putative substrates (no activity above limit)” value in assay [1] is given as “– (– indicates no activity above the limit of reliable detection (0.0013 s^–1))”. Same read-out and setting: the entry for “PEAK^acSLL [acetyllysine peptide from RAC-α serine/threonine-protein kinase (P31749)]” is “– (– indicates no activity above the limit of reliable detection (0.0013 s^–1))”. As for “PLWK^acGIG [acetyllysine peptide from regulator of nonsense transcripts 1 (Q92900)]”, the “specific activity, KDAC8 with putative substrates” value in assay [2] was 0.0035 ± 0.0021 s^–1.

With “PSPK^acVSD [acetyllysine peptide from tubulin β-3 chain (Q13509)]”, the “specific activity, KDAC6 with putative substrates (no activity above limit)” value in assay [1] is “– (– indicates no activity above the limit of reliable detection (0.0013 s^–1))”. As for “QATK^acDAG [acetyllysine peptide from heat shock 70 kDa protein 1A/1B (P0DMV8/P0DMV9)]”, in assay [1], the “specific activity, KDAC6 with putative substrates” value amounted to 0.022 ± 0.006 s^–1.

“RFTK^acCLR [acetyllysine peptide from steroid hormone receptor ERR1 (P11474)]”: in assay [2], the “specific activity, KDAC8 with putative substrates” value came out at 0.0030 ± 0.0016 s^–1.

As for “RIPK^acEQW [acetyllysine peptide from ATP-dependent 6-phosphofructokinase, platelet type (Q01813)]”, in assay [2], the “specific activity, KDAC8 with putative substrates” value came out at 0.0031 ± 0.0015 s^–1.

Take “RMFK^acQFN [acetyllysine peptide from transcription intermediary factor 1-β (Q13263)]”: the “specific activity, KDAC8 with putative substrates” value in assay [2] was 0.015 ± 0.014 s^–1. Regarding SVRK^acGIM, the “specific activity, KDAC6 with putative substrates (no activity above limit)” value in assay [1] is on record as “– (– indicates no activity above the limit of reliable detection (0.0013 s^–1))”. “TDGK^acVFQ [acetyllysine peptide from 60S ribosomal protein L24 (P83731)]”: the “specific activity, KDAC6 with putative substrates” value in assay [1] came out at 0.026 ± 0.024 s^–1. Regarding “TLSK^acLHE [acetyllysine peptide from protein diaphanous homologue 3 (Q9NSV4)]”, the “specific activity, KDAC6 with putative substrates (no activity above limit)” value in assay [1] is reported as “– (– indicates no activity above the limit of reliable detection (0.0013 s^–1))”. As to “VGGK^acDFE [acetyllysine peptide from PDZ and LIM domain protein 1 (O00151)]”, in assay [2], the “specific activity, KDAC8 with putative substrates (no activity above limit)” value is “– (– indicates no activity above the limit of reliable detection (0.0004 s^–1))”. For the substance “VLEK^acLGE [acetyllysine peptide from serine/threonine-protein kinase 4 (Q13043)]”, in assay [1], the “specific activity, KDAC6 with putative substrates (no activity above limit)” value is on record as “– (– indicates no activity above the limit of reliable detection (0.0013 s^–1))”. “YFSK^acHN [acetyllysine peptide from peroxiredoxin-2 (P32119), C-terminus, not amidated]”: the “specific activity, KDAC6 with putative substrates” value in assay [1] was 0.010 ± 0.006 s^–1.
